# Patent US11382328B2, “Rapid drug discovery methods for pathogen inactivation” (priority 2019, dated 2022)
# Tested on: E. coli strain W3110
# Test: Synergy assays: Biolog chemical sensitivity panels with Group IB metal, coefficient of drug interaction (CDI) from relative growth
# Format: cell-based
# Conditions: for CDI (coefficient of drug interaction), gold + biocide: Gold (μM); for CDI (coefficient of drug interaction), copper mixed with biocide: Copper (mM) section
# [1] = 1st of 3 copper concentrations (value not shown), 3rd of four biocide concentrations
# [2] = 1st of 3 copper concentrations (value not shown), 4th of four biocide concentrations
# [3] = 2nd of 3 copper concentrations (value not shown), 3rd of four biocide concentrations
# [4] = 2nd of 3 copper concentrations (value not shown), 4th of four biocide concentrations
# [5] = 3rd of 3 copper concentrations (value not shown), 3rd of four biocide concentrations
# [6] = 3rd of 3 copper concentrations (value not shown), 4th of four biocide concentrations
# [7] = Gold section of Table 5, first of three gold concentrations (μM, value not given), biocide concentration 3 of 4
# [8] = Gold section of Table 5, first of three gold concentrations (μM, value not given), biocide concentration 4 of 4
# [9] = Gold section of Table 5, second of three gold concentrations (μM, value not given), biocide concentration 3 of 4
# [10] = Gold section of Table 5, second of three gold concentrations (μM, value not given), biocide concentration 4 of 4
# [11] = Gold section of Table 5, third of three gold concentrations (μM, value not given), biocide concentration 3 of 4
# [12] = Gold section of Table 5, third of three gold concentrations (μM, value not given), biocide concentration 4 of 4
# [13] = Silver 0.5 μM, 3rd of four biocide concentrations, E. coli
# [14] = Silver 0.5 μM, 4th of four biocide concentrations, E. coli
# [15] = Silver 1.0 μM, 3rd of four biocide concentrations, E. coli
# [16] = Silver 1.0 μM, 4th of four biocide concentrations, E. coli
# [17] = Silver 5.0 μM, 3rd of four biocide concentrations, E. coli
# [18] = Silver 5.0 μM, 4th of four biocide concentrations, E. coli
smiles,measurement,setting,value
NC(CCC(=O)NO)C(=O)O [L-glutamic-γ-hydroxamate],CDI (coefficient of drug interaction),"Copper (mM), 1st of 3 copper concentrations (head line not shown), biocide concentration 1 of 4, E. coli",1.14
same,CDI (coefficient of drug interaction),"Copper (mM), 1st of 3 copper concentrations (head line not shown), biocide concentration 2 of 4, E. coli",1.16
same,CDI (coefficient of drug interaction),"Copper (mM), 1st of 3 copper concentrations (head line not shown), biocide concentration 3 of 4, E. coli",0.97
same,CDI (coefficient of drug interaction),"Copper (mM), 1st of 3 copper concentrations (head line not shown), biocide concentration 4 of 4, E. coli",1.01
same,CDI (coefficient of drug interaction),"Copper (mM), 2nd of 3 copper concentrations (head line not shown), biocide concentration 1 of 4, E. coli",0.87
same,CDI (coefficient of drug interaction),"Copper (mM), 2nd of 3 copper concentrations (head line not shown), biocide concentration 2 of 4, E. coli",0.90
same,CDI (coefficient of drug interaction),"Copper (mM), 2nd of 3 copper concentrations (head line not shown), biocide concentration 3 of 4, E. coli",0.92
same,CDI (coefficient of drug interaction),"Copper (mM), 2nd of 3 copper concentrations (head line not shown), biocide concentration 4 of 4, E. coli",0.96
same,CDI (coefficient of drug interaction),"Copper (mM), 3rd of 3 copper concentrations (head line not shown), biocide concentration 1 of 4, E. coli",0.75
same,CDI (coefficient of drug interaction),"Copper (mM), 3rd of 3 copper concentrations (head line not shown), biocide concentration 2 of 4, E. coli",0.80
same,CDI (coefficient of drug interaction),"Copper (mM), 3rd of 3 copper concentrations (head line not shown), biocide concentration 3 of 4, E. coli",0.69
same,CDI (coefficient of drug interaction),"Copper (mM), 3rd of 3 copper concentrations (head line not shown), biocide concentration 4 of 4, E. coli",0.74
same,"CDI (coefficient of drug interaction), gold + biocide","first of 3 gold concentrations, biocide concentration 1 of 4",1.03
same,"CDI (coefficient of drug interaction), gold + biocide","first of 3 gold concentrations, biocide concentration 2 of 4",1.03
same,"CDI (coefficient of drug interaction), gold + biocide","first of 3 gold concentrations, biocide concentration 3 of 4",1.08
same,"CDI (coefficient of drug interaction), gold + biocide","first of 3 gold concentrations, biocide concentration 4 of 4",1.08
same,"CDI (coefficient of drug interaction), gold + biocide","second of 3 gold concentrations, biocide concentration 1 of 4",1.02
same,"CDI (coefficient of drug interaction), gold + biocide","second of 3 gold concentrations, biocide concentration 2 of 4",1.01
same,"CDI (coefficient of drug interaction), gold + biocide","second of 3 gold concentrations, biocide concentration 3 of 4",1.09
same,"CDI (coefficient of drug interaction), gold + biocide","second of 3 gold concentrations, biocide concentration 4 of 4",1.04
same,"CDI (coefficient of drug interaction), gold + biocide","third of 3 gold concentrations, biocide concentration 1 of 4",1.01
same,"CDI (coefficient of drug interaction), gold + biocide","third of 3 gold concentrations, biocide concentration 2 of 4",1.01
same,"CDI (coefficient of drug interaction), gold + biocide","third of 3 gold concentrations, biocide concentration 3 of 4",1.02
same,"CDI (coefficient of drug interaction), gold + biocide","third of 3 gold concentrations, biocide concentration 4 of 4",1.01
same,CDI,"Silver 0.5 μM, biocide concentration 1 of 4",0.93
same,CDI,"Silver 0.5 μM, biocide concentration 2 of 4",0.75
same,CDI,"Silver 0.5 μM, biocide concentration 3 of 4",0.61
same,CDI,"Silver 0.5 μM, biocide concentration 4 of 4",0.49
same,CDI,"Silver 1.0 μM, biocide concentration 2 of 4",0.97
same,CDI,"Silver 1.0 μM, biocide concentration 3 of 4",0.93
same,CDI,"Silver 1.0 μM, biocide concentration 4 of 4",0.71
same,CDI,"Silver 5.0 μM, biocide concentration 1 of 4",1.00
same,CDI,"Silver 5.0 μM, biocide concentration 2 of 4",0.85
same,CDI,"Silver 5.0 μM, biocide concentration 3 of 4",0.71
same,CDI,"Silver 5.0 μM, biocide concentration 4 of 4",0.34
CCCCCCCC[N+](C)(CCCCCCCC)CCCCCCCC.[Br-] [Methyltrioctyl NH4+ Br−],"CDI (coefficient of drug interaction), copper mixed with biocide","1st of 3 copper concentrations (value not shown), 1st of four biocide concentrations",1.05
same,"CDI (coefficient of drug interaction), copper mixed with biocide","1st of 3 copper concentrations (value not shown), 2nd of four biocide concentrations",1.22
same,"CDI (coefficient of drug interaction), copper mixed with biocide",[1],1.39
same,"CDI (coefficient of drug interaction), copper mixed with biocide",[2],Tox
same,"CDI (coefficient of drug interaction), copper mixed with biocide","2nd of 3 copper concentrations (value not shown), 1st of four biocide concentrations",1.08
same,"CDI (coefficient of drug interaction), copper mixed with biocide","2nd of 3 copper concentrations (value not shown), 2nd of four biocide concentrations",1.14
same,"CDI (coefficient of drug interaction), copper mixed with biocide",[3],1.05
same,"CDI (coefficient of drug interaction), copper mixed with biocide",[4],Tox
same,"CDI (coefficient of drug interaction), copper mixed with biocide","3rd of 3 copper concentrations (value not shown), 1st of four biocide concentrations",0.87
same,"CDI (coefficient of drug interaction), copper mixed with biocide","3rd of 3 copper concentrations (value not shown), 2nd of four biocide concentrations",0.80
same,"CDI (coefficient of drug interaction), copper mixed with biocide",[5],0.44
same,"CDI (coefficient of drug interaction), copper mixed with biocide",[6],Tox
same,CDI (coefficient of drug interaction),"Gold section of Table 5, first of three gold concentrations (μM, value not given), biocide concentration 1 of 4",1.06
same,CDI (coefficient of drug interaction),"Gold section of Table 5, first of three gold concentrations (μM, value not given), biocide concentration 2 of 4",1.05
same,CDI (coefficient of drug interaction),[7],1.00
same,CDI (coefficient of drug interaction),[8],Tox
same,CDI (coefficient of drug interaction),"Gold section of Table 5, second of three gold concentrations (μM, value not given), biocide concentration 1 of 4",1.14
same,CDI (coefficient of drug interaction),"Gold section of Table 5, second of three gold concentrations (μM, value not given), biocide concentration 2 of 4",0.98
same,CDI (coefficient of drug interaction),[9],0.37
same,CDI (coefficient of drug interaction),[10],Tox
same,CDI (coefficient of drug interaction),"Gold section of Table 5, third of three gold concentrations (μM, value not given), biocide concentration 1 of 4",0.96
same,CDI (coefficient of drug interaction),"Gold section of Table 5, third of three gold concentrations (μM, value not given), biocide concentration 2 of 4",1.01
same,CDI (coefficient of drug interaction),[11],0.91
same,CDI (coefficient of drug interaction),[12],Tox
same,"CDI (coefficient of drug interaction), silver + biocide","Silver 0.5 μM, 1st of four biocide concentrations, E. coli",1.01
same,"CDI (coefficient of drug interaction), silver + biocide","Silver 0.5 μM, 2nd of four biocide concentrations, E. coli",0.90
same,"CDI (coefficient of drug interaction), silver + biocide",[13],Tox
same,"CDI (coefficient of drug interaction), silver + biocide",[14],Tox
same,"CDI (coefficient of drug interaction), silver + biocide","Silver 1.0 μM, 1st of four biocide concentrations, E. coli",1.04
same,"CDI (coefficient of drug interaction), silver + biocide","Silver 1.0 μM, 2nd of four biocide concentrations, E. coli",1.09
same,"CDI (coefficient of drug interaction), silver + biocide",[15],Tox
same,"CDI (coefficient of drug interaction), silver + biocide",[16],Tox
same,"CDI (coefficient of drug interaction), silver + biocide","Silver 5.0 μM, 1st of four biocide concentrations, E. coli",1.66
same,"CDI (coefficient of drug interaction), silver + biocide","Silver 5.0 μM, 2nd of four biocide concentrations, E. coli",1.73
same,"CDI (coefficient of drug interaction), silver + biocide",[17],Tox
same,"CDI (coefficient of drug interaction), silver + biocide",[18],Tox
CCn1cc(C(=O)O)c(=O)c2ccc(C)nc21 [Nalidixic Acid],"CDI (coefficient of drug interaction), copper mixed with biocide",[1],Tox
same,"CDI (coefficient of drug interaction), copper mixed with biocide",[2],Tox
same,"CDI (coefficient of drug interaction), copper mixed with biocide",[3],Tox
same,"CDI (coefficient of drug interaction), copper mixed with biocide",[4],Tox
same,"CDI (coefficient of drug interaction), copper mixed with biocide",[5],Tox
same,"CDI (coefficient of drug interaction), copper mixed with biocide",[6],Tox
same,CDI (coefficient of drug interaction),[7],Tox
same,CDI (coefficient of drug interaction),[8],Tox
same,CDI (coefficient of drug interaction),[9],Tox
same,CDI (coefficient of drug interaction),[10],Tox
same,CDI (coefficient of drug interaction),[11],Tox
same,CDI (coefficient of drug interaction),[12],Tox
same,"CDI (coefficient of drug interaction), silver + biocide",[13],Tox
same,"CDI (coefficient of drug interaction), silver + biocide",[14],Tox
same,"CDI (coefficient of drug interaction), silver + biocide",[15],Tox
same,"CDI (coefficient of drug interaction), silver + biocide",[16],Tox
same,"CDI (coefficient of drug interaction), silver + biocide",[17],Tox
same,"CDI (coefficient of drug interaction), silver + biocide",[18],Tox
